Reference: patent US11759480B2, “Compositions and methods for CAR T cell therapy” (ENDOCYTE, INC., priority 2017, dated 2023)

How the values were obtained:
[1] = test system: MDA-MB-231 tumors; assay: Comparison of three rescue reagents (Example 32)
Protocol: To evaluate whether mice with FITC-CAR-T therapy related sCRS can be rescued by using competitors which may displace EC17 from either FITC-CAR-T or FR+ tumor cells, 49 NSG mice bearing MDA-MB-231 tumors (150-250 mm3) were administered with excess FITC-CAR-T cells (8 million), 36 of them were then dosed with 500 nmol/kg EC17 48 hours post CAR-T administration, 6 of them were not dosed with EC17 and were used as “No EC17” control, and 7 of them were dosed with 260 umol/kg sodium fluorescein (no EC17 but Fluorescein) to test its toxicity. […] Each group was i.v. injected with 10 umol/kg of Leucovorin, or 10 umol/kg folic acid, or 260 umol/kg sodium fluorescein, or nothing as an un-rescued control. […] Mouse body weight changes were also monitored as the indication of toxicity. […] To evaluate whether the rescue injections affect the anti-tumor activity of FITC-CAR-T cells, these mice were dosed with 500 nmol/kg EC17 twice per week (days 9, 11, 15, 18, 22, 25, etc.) and the tumor size was monitored.

[2] = test system: MDA-MB-231 solid tumor xenografts; assay: Control of CAR T cell activation in vivo: break, FA competitor or both (Example 19); conditions: 15×10^6 CAR T cells + FITC-Folate 500 nmole/kg every other day
Protocol: Five study groups were designed to test whether anti-FITC CAR T cell activation can be controlled via temporal termination of FITC-ligands, by administering a competitor small molecule, or a combination approach of both discontinuing of FITC-ligands and/or administering an FA competitor. The first group was treated by administering anti-FITC CAR T cell with phosphate-buffered saline (PBS) as a negative control. Every other day over the course of the study, the second, third, fourth and fifth groups were treated with anti-FITC CAR T cell mixed with FITC-Folate (500 nmole/kg). […] Mouse bodyweight was measured regularly to test for toxicity.

[3] = test system: MDA-MB-231 solid tumor xenografts; assay: Anti-tumor efficacy and toxicity of CAR T cells with EC17 in vivo (Example 17); parameters: species or system NSG mice
Protocol: Immunodeficient NSG mice (Jackson Laboratory) were used to identify the efficacy of CAR T cell anti-tumor activity in vivo. A folate receptor expressing MDA-MB-231 cancer cell line was subcutaneously injected into the back of NSG mice to establish solid tumor xenografts. When tumor volume of around 100-300 mm^3 was reached, a desired concentration of EC17 (as shown in the figure legends) was introduced 4 hours before the administration of a desired number of CAR T cell (as shown in the figure legends) into the mice bearing tumors. After initial administration of EC17 and CAR T cells, desired concentrations of EC17 (as shown in the figure legends) were also introduced (i.v.) three times per week. Control mice were administered T cells without CAR modification. Other control mice were administrated CAR-Ts, but PBS was dosed instead of EC17. Anti-tumor efficacy was monitored by tumor volume. General toxicity of the therapy was monitored by weight loss, gross animal morphology and behavior.

[4] = test system: MDA-MB-231 tumor; assay: CAR-T anti-tumor activity and toxicity at different EC17 dose levels (Example 27); assay type: in vivo
Protocol: Immunodeficient NSG mice (Jackson Laboratory) were used to study CAR T cell anti-tumor activity and its toxicity in the presence of different EC17 dose levels. MDA-MB-231 tumor cells were used to establish subcutaneous solid tumor xenografts. When tumor volume of around 100-150 mm^3 was reached, various concentrations of EC17 were pre-injected 4 hours before i.v. injection of 10 million CAR-T cells. Various concentrations of EC17 were then administrated three times per week after the initial EC17 and CAR-T cell injections. The negative control group was injected with 500 nmol/kg EC17 (4 hour in advance) and […] unmodified T cells. 500 nmol/kg EC17 was then administrated three times per week after initial injection. Tumor size and body weight were measured to monitor the anti-tumor activity and the toxicity. […] By adjusting the EC17 dose level, CAR-T anti-tumor activity can be maintained while the resulting body weight loss (toxicity) can be reduced. In FIGS. 20A and 20B, EC17 is also referred to as “adaptor” or “bi-specific adaptor”.

[5] = test system: MDA-MB-231 solid tumor xenografts; assay: Effect of FITC-Folate dose on anti-FITC CAR T cell response (Example 10); assay type: in vivo, NSG mice
Text: Five experimental groups: (1) anti-FITC CAR T cell with PBS; (2) anti-FITC CAR T cell with FITC-Folate (5 nmoles/kg); (3) anti-FITC CAR T cell with FITC-Folate (50 nmoles/kg); (4) anti-FITC CAR T cell with FITC-Folate (500 nmoles/kg); (5) anti-FITC CAR T cell with FITC-Folate (2500 nmoles/kg) were designed to identify the relationship between anti-FITC CAR T cell response and the dose of FITC-ligands. MDA-MB-231 cells were subcutaneously injected into the shoulders of NSG mice (Jackson Laboratory) to establish solid tumor xenografts. When tumor volume reached around 50-100 mm^3, anti-FITC CAR T cells (15×10^6 cells) and different doses of FITC-Folate were intravenously introduced into the mice.
To monitor anti-FITC CAR T cell activation with the different doses of FITC-Folate, IFN-gamma concentration was measured in mouse blood by a bead-based immunoassay (Legendplex kit from Biolegend). Tumor volume was also measured. General toxicity for each treatment group was monitored by measuring weight loss.

[6] = test system: KB cells; assay: Anti-fluorescein CAR T cell activity against KB cells in vitro (Example 43); assay type: cell-based; conditions: CAR T:KB 10 to 1
Protocol: FR positive cancer cell lines (e.g. KB or MDA-MB-231 cells) were seeded at density of 10^4 cells/100 μl media into 96 well plates and grown overnight. Anti-fluorescein CAR T cells were added to each well in the absence or presence of bridge molecules. After co-incubation for 6-24 hours, plates were centrifuged at 350×g for 10 min to remove debris and supernatants were analyzed for lactate dehydrogenase release (cell death analysis) using Pierce™ LDH cytotoxicity assay kit (Thermo Fisher Scientific, MA) and interferon γ (IFNγ) levels using human IFNγ ELISA kit (Biolegend, CA), while pellets were either evaluated for CAR T cell activation by staining with anti-human CD69 APC (Clone: FN50, Biolegend, CA) or examined for CAR T cell proliferation by culturing for 5 days in TexMACS™ medium (Miltenyi Biotech Inc, CA) containing 1% penicillin and streptomycin sulfate and quantitating by flow cytometry using the intrinsic GFP fluorescence and staining with anti-human CD3 APC antibody (Clone:HIT3a, Biolegend, CA).

Structure (SMILES) | body weight loss compared to other rescue groups ([1]; 260 umol/kg) | order of sCRS severity (from worst to least) ([1]; 10 hours after rescue, Leucovorin 10, folic acid 10, sodium fluorescein 260 umol/kg) | mice with a tiny tumor left ([1]; day 36 post CAR T injection) | weight loss (serious CAR T cell mediated toxicity) [2] | effect of changing dosing frequency from TIW to SIW ([3]; 5 million CAR T cells) | anti-tumor outcome ([3]; EC17 20 and 100 nmoles/kg) | sCRS and body weight loss compared to 500 nmoles/kg cohort ([3]; EC17 20 and 100 nmoles/kg) | body weight loss ([3]; optimized EC17 amount and CAR T numbers, complete cures reached) | sCRS and cures ([3]; over-saturated EC17 doses 1500 and 10000 nmoles/kg) | toxicity (body weight loss) ([4]; 20 nmol/kg TIW) | toxicity (body weight loss) ([4]; 500 nmol/kg TIW) | tumor outcome ([4]; 500, 100 or 20 nmol/kg TIW, 10 million CAR-T) | concentration of IFN-gamma versus FITC-Folate dose ([5]; 5, 50, 500, 2500 nmoles/kg, 15×10^6 CAR T cells) | dose with maximum toxicity (lowest survival rate) and highest anti-tumor efficacy ([5]; 15×10^6 CAR T cells) | anti-tumor efficacy of CAR T cells ([5]; FITC-Folate 2500 nmole/kg) | IFNγ production ([6]; 100 nM) | proliferation of anti-fluorescein CAR T cells [6]
O=C([O-])c1ccccc1-c1c2ccc(=O)cc-2oc2cc([O-])ccc12.[Na+].[Na+] [sodium fluorescein] | least body weight loss | no rescue group>leucovorin rescue group>folic acid rescue group>sodium fluorescein rescue group>no EC17 group | 2 out of 9 | – | – | – | – | – | – | – | – | – | – | – | – | – | –
Nc1nc2ncc(CNc3ccc(C(=O)NC(CCC(=O)NCCNC(=S)Nc4ccc(-c5c6ccc(=O)cc-6oc6cc(O)ccc56)c(C(=O)O)c4)C(=O)O)cc3)nc2c(=O)[nH]1 (centres unmarked) [EC17, FITC-Folate] | – | – | – | > 10% | reduce the toxicity and achieve better anti-tumor potency | complete cures | a lower percentage of sCRS and less body weight loss | 2% | less mice showed sCRS but less mice reached cures | least toxicity | strongest toxicity | all eliminated | bell-shaped dose-response curve | 500 nmol/kg | started to decrease | induced | induced
